The source of these data is article PMC10804407, “Rombocin, a Short Stable Natural Nisin Variant, Displays Selective Antimicrobial Activity against Listeria monocytogenes and Employs a Dual Mode of Action to Kill Target Bacterial Strains” (ACS Synthetic Biology, 2024).

Assay [1] concerns E. faecalis LMG16216 (VRE). The class given is cell-based, Enterococcus faecalis. The settings on record: LMG16216. As for the experimental part: (§1) Each experiment was performed in triplicate.
Assay [2] has as its system L. lactis. Kind of assay: Fluorescence microscopy assay of membrane integrity (SYTO 9 / propidium iodide). The class given is cell-based, Lactococcus lactis. The conditions noted are these: 5× MIC, 15 min / 20 min (method), room temperature. As to the method:
L. lactis was cultured until it reached an OD600 of 0.8 and then pelleted at 8000g for 5 min and washed three times in 0.7% NaCl. The cell density was normalized to an OD600 of 0.4 in 0.7% NaCl, and a concentration of 5-fold MIC value of each tested antibiotic was added to the cell suspension simultaneously with SYTO 9 and propidium iodide using the LIVE/DEAD Baclight Bacterial Viability Kit (Invitrogen). After incubation at room temperature for 20 min, the compounds were removed by washing the cells with 0.7% NaCl. Finally, the cell suspensions were loaded onto 1.5% agarose pads and analyzed with a DeltaVision Elite microscope (Applied Precision).

The next assay concerns S. aureus LMG10147. The class given is cell-based, Staphylococcus aureus. The settings on record: LMG10147. As for the experimental part: as §1
Assay [3] relates to S. aureus LMG15975 (MRSA). The format is cell-based, Staphylococcus aureus. The conditions noted are these: LMG15975. As for the experimental part:
as §1

Assay [4] has as its system L. lactis. As to the kind of experiment: Membrane potential determination (DiSC3(5) probe). The settings on record: 5× MIC, 10 mM HEPES with 10 mM glucose pH 7.2, 2 μM DiSC3(5), 25 min. The class given is cell-based, Lactococcus lactis. As for the experimental part:
To measure the membrane potential, the membrane potential-sensitive fluorescent dye DiSC3(5) was utilized. L. lactis was cultured to an OD600 of 0.8, pelleted at 5000g for 5 min, and washed twice in 10 mM HEPES with 10 mM glucose (pH 7.2). The cell density was adjusted to an OD600 of 0.2 and loaded with 2 μM DiSC3(5) dye, followed by 20 min of incubation in the dark to stabilize the probe fluorescence. Next, the cell suspension was added to a 96-well microplate and incubated for 5 min with 100 mM KCl. […] The fluorescence spectrometer’s excitation and emission wavelengths were adjusted to 622 and 670 nm, respectively. Three technical replicates were performed, and the representative example is shown.

Assay [5] can be described thus: Growth curve-based lipid II/LTA binding assay. The format is cell-based, Lactococcus lactis. The settings on record: L. lactis MG1363, 5 × MIC peptide, 2 µl lipid II, 6 hours, three replicates. As to the method: Screening the antibacterial activity of peptides by spot-on-lawn assay
To prepare the plates, an overnight culture of the strains was added to 0.8% LB agar or GM17agar (wt/vol) at 45 ℃ and mixed to a final concentration of 0.1% (vol/vol) before being poured onto the plates (10 ml each). Next, 5 µl of the precursor peptide and 1 µl of 1 mg/mL NisP were dropped onto the plates and left to dry before incubation. The plates were then incubated overnight at 37°C, except for L. lactis, which was incubated at 30°C.
Evaluation of (methyl)lanthionine formation
16 μL of phosphate-buffered saline (pH 7.4) was added to the samples followed by treatment with 2 μL of 5 mg/mL tris[2-carboxyethyl]phosphine for 30 min at room temperature. Next, 4.5 μL of 25 mg/mL N-ethylmaleimide was added to the samples, which were then incubated at room temperature for 2 h.
Subsequently, the samples were desalted using a C18 ZipTip (Millipore) according to the manufacturer’s instructions and subjected to MALDI-TOF MS analysis.
Growth curve and lipid II/LTA binding assay
Overnight cultures of L. lactis MG1363 were diluted to an OD 600 of 0.05 and added to a 96-well plate, which was incubated at 30°C. […] The growth curve was recorded over the following 6 hours using a microplate spectrophotometer under the same conditions, with three replicates used for each treatment.

The subject of another assay is L. monocytogenes LK132. The class given is cell-based, Listeria monocytogenes. The conditions noted are these: LK132. As for the experimental part: as §1
The subject of assay [6] is L. monocytogenes LMG10470. The class given is cell-based, Listeria monocytogenes. The settings on record: LMG10470. As to the method:
as §1

A further assay relates to L. monocytogenes TT82E. The class given is cell-based, Listeria monocytogenes. The conditions noted are these: TT82E. As to the method: as §1
In assay [7] the test system is L. lactis. Kind of assay: Potassium ion efflux assay (PBFI probe). The format is cell-based, Lactococcus lactis. The conditions noted are these: 5× MIC, 10 mM HEPES pH 7.2 with 0.5% glucose, 10 μM PBFI. As to the method: To perform the K^+ release assay, we used the K^+-specific fluorescent probe PBFI. L. lactis was cultured in GM17 until the OD600 reached 0.6, after which the cells were harvested (5000g, 5 min) and washed twice with 10 mM HEPES (pH 7.2) with 0.5% glucose. The cells were then resuspended in the same buffer containing 10 μM PBFI. Data were analyzed using a Varioskan LUX Multimode Microplate Reader; cells were excited at 346 nm, and the fluorescence emission was measured at 505 nm to establish a baseline signal before the addition of 5-fold MIC antibiotics, after which data were collected. Nisin was used as a positive control.

Assay [8] in a line: Spot-on-lawn assay, peptide-LTA complex formation. The settings on record: spot-on-lawn (LTA 1 mg/mL, 2 μL) and growth curves, L. lactis MG1363. The format is binding, Lactococcus lactis. As to the method: (§2) To evaluate the binding of peptide and lipid II or lipoteichoic acid (LTA), an overnight cultured L. lactis MG1363 was added to 0.8% GM17 (w/v, temperature 45 °C) at a final concentration of 0.1% (v/v), and then, the mixture was poured onto 10 mL plates. The binding of peptide and lipid II or LTA was further evaluated by spotting of purified lipid II (300 μM, 2 μL) or LTA (1 mg/mL, 2 μL) to the edge of the inhibition halo of antibiotics. Briefly, antimicrobials were loaded to the agar plate. After the antimicrobial solution drops had dried, lipid II or LTA was spotted to the edge of inhibition halo of antimicrobials. The plates were then incubated overnight at 30 °C after the drops had dried.

The next assay relates to L. lactis MG1363. The format is cell-based, Lactococcus lactis. The settings on record: MG1363. As to the method: as §1
A short description of assay [9]: Spot-on-lawn assay, peptide-lipid II complex formation. The settings on record: L. lactis MG1363, purified lipid II 300 μM, 2 μL at edge of halo, overnight 30 °C. The class given is binding, Lactococcus lactis. As for the experimental part: as §2

Values after ≈ are worked out from the molar mass of the structure shown.

In general, MIC refers to the lowest concentration found to suppress growth. A high value points to a need for much substance. For `C=C1NC(=O)[C@H]([C@@H](C)CC)NC(=O)C(NC(=O)C(=CC)NC(=O)[C@@H](N)[C@@H](C)CC)CSC[C@@H](C(=O)NC2C(=O)N[C@@H](C)C(=O)NCC(=O)N[C@H](C(=O)N[C@H](C(=O)NC3C(=O)NCC(=O)N[C@@H](C(C)C)C(=O)N[C@@H]([C@@H](C)CC)C(=O)N[C@@H](CCSC)C(=O)NC(=CC)C(=O)N[C@H](C(=O)N[C@@H](CCSC)C(=O)NC4CSC[C@@H](C(=O)N[C@@H](CCCCN)C(=O)O)NC(=O)CNC(=O)[C@H](CC(N)=O)NC4=O)CSC3C)[C@@H](C)CC)CSC2C)NC(=O)[C@H](CC(C)C)NC1=O` (stereo partly shown) [rombocin A], the MIC in [1] is 50 µg/mL (≈ 21 µM); in the assay with S. aureus LMG10147, 100 µg/mL (≈ 42 µM); in [3], 100 µg/mL (≈ 42 µM); against L. monocytogenes LK132, 25 µg/mL (≈ 10.5 µM); in assay [6], 25 µg/mL (≈ 10.5 µM); in the assay on L. monocytogenes TT82E it was 12,5 μg/mL. Moreover, the minimal inhibitory concentration (MIC) against L. lactis MG1363 is 0,78 μg/mL. Moreover, the “membrane integrity (SYTO 9 / propidium iodide fluorescence)” value with L. lactis [2] was “membrane disruption similar to nisin”. Also, the “membrane depolarization (DiSC3(5) fluorescence)” value in the assay on L. lactis [4] is listed as “significant membrane depolarization”. In addition, the “effect of added lipid II on activity (growth curves)” value in assay [5] is on record as “reduced its activity”. The “release of intracellular potassium ions (PBFI fluorescence)” value in the assay with L. lactis [7] is on record as “did not have this effect”. Further, in assay [8], the “binding to lipoteichoic acid (LTA)” value is “utilizes electrostatic interactions to interact with the cell walls of target bacteria”. In assay [9], the “binding to lipid II (effect of spotted lipid II on the inhibition halo)” value is “reduction in the antimicrobial activity against L. lactis”.
